Laboratory results: publication PMC4399389, “Identification of a laccase Glac15 from Ganoderma lucidum 77002 and its application in bioethanol production” (Biotechnology for Biofuels, 2015)
Blank lines part the entries; values can stand above or below the compound they belong to.

Experiments:
Experiment in all cases: oxidation, absorbance at […] nm
Type in all cases: biochemical, Ganoderma lucidum
[1] = system: T1, Glac15 (laccase, isoenzyme from G. lucidum 77002); details: optimum pH 4.5; 50 mM citrate-phosphate buffer; optimal temperature 45 °C; O2 as co-substrate
T1 construct: native secreted enzyme purified from culture filtrate (ultrafiltration, DEAE-Sepharose FF); signal peptide of 21 residues removed; N-terminus GIGPTTDLTISNADI; tryptic peptides matched Glac6 and Glac15 of strain Xiangnong No.1

[2] = system: T1, Glac15 (laccase, isoenzyme from G. lucidum 77002); details: optimum pH 2.5; 50 mM citrate-phosphate buffer; optimal temperature 50 °C; O2 as co-substrate
[3] = system: T1, Glac15 (laccase, isoenzyme from G. lucidum 77002); details: optimum pH 5.0; 50 mM citrate-phosphate buffer; optimal temperature 45 °C; O2 as co-substrate
[4] = system: T1, Glac15 (laccase, isoenzyme from G. lucidum 77002); details: optimum pH 5.0; 50 mM citrate-phosphate buffer; optimal temperature 55 °C; O2 as co-substrate
[5] = system: T1, Glac15 (laccase, isoenzyme from G. lucidum 77002); details: optimum pH 4.5; 50 mM citrate-phosphate buffer; optimal temperature 50 °C; O2 as co-substrate
[6] = system: T1, Glac15 (laccase, isoenzyme from G. lucidum 77002); details: optimum pH 4.5; 50 mM citrate-phosphate buffer; optimal temperature 45 °C; O2 as co-substrate; remark: listed apart in the source

SMILES: CCn1c(=NN=c2sc3cc(S(=O)(=O)O)ccc3n2CC)sc2cc(S(=O)(=O)O)ccc21 [ABTS, 2,2′-azino-bis-(3-ethylbenzothiazoline-6-sulfonic acid)]
Km [2]: 19 µM

SMILES: Oc1ccccc1O [Catechol]
Km [3]: 780 µM

SMILES: N[C@@H](Cc1ccc(O)c(O)c1)C(=O)O [L-dopamine]
Km [5]: 890 µM

SMILES: COc1cc(C=NN=Cc2cc(OC)c(O)c(OC)c2)cc(OC)c1O [Syringaldazine]
Km [6]: 62 µM

Results, then the compound that gave them:

Km [1]: 120 µM
SMILES: COc1cccc(OC)c1O [2,6-DMP, 2,6-dimethoxyphenol]

Km [4]: 790 µM
SMILES: COc1ccccc1O [Guaiacol]
